These results are taken from patent US10273218B2, “BCL-3 inhibitors” (University College Cardiff Consultants Limited, priority 2014, dated 2019).

The subject of assay [1] is human breast cancer MDA-MB-231 xenograft. Nature of the assay: in vivo metastasis mouse Model 1 (seeding and early colonization of circulating tumour cells). Conditions: 3.5 mg/kg intraperitoneally daily; MDA-MB-231. Details: species or system mice. As to the method:
(§1) In all experiments, each compound was administered by intraperitoneally at 3.5 mg/kg.
One model (Model 1) studied the effect of the compound's ability to inhibit the seeding and early colonization of circulating tumour cells at distal sites, most commonly in the lungs and liver. Human tumour cell lines were injected into the bloodstream of recipient mice, followed by single daily intraperitoneal injections of the compound (3.5 mg/kg in 1% DMSO) for 10 consecutive days. Tumour burden was monitored longitudinally for up to 8 weeks in vivo by live luminescence imaging, and subsequently histology performed on affected organs at the end of the experiment.
Model 1 tested the effect of Bcl3i compounds to inhibit the seeding and early colonization of circulating tumour cells at distal sites, most commonly in the lungs and liver. Human tumour cell lines were injected into the bloodstream of recipient mice, followed by single daily intraperitoneal injections of Bcl3 inhibitor (3.5 mg/kg in 1% DMSO) for 10 consecutive days. Tumour burden was monitored longitudinally for up to 8 weeks in vivo by live luminescence imaging, and subsequently histology performed on affected organs at the end of the experiment.
The X axis represents the number of days after xenograft and the Y axis is the relative luminescence of the thoracic region by Xenon IVIS scanning of mice following injection of d-luciferin for 10 minutes.
(§2) MDA-MB-231 human breast cancer cells were used in each of the three xenograft models of metastatic breast cancer.

In assay [2] the test system is MDA-MB-231 human breast cancer cells. Nature of the assay: mouse Model 2 (colonization, growth and spread of secondary lesions at distal sites). The format is in vivo, mice. Conditions: 3.5 mg/kg intraperitoneally daily. As to the method: as §1
Another model (Model 2) tested the effect of the compound's ability to inhibit the colonization and subsequent growth and spread of secondary lesions at distal sites. Human tumour cell lines were injected into the bloodstream of recipient mice, followed 2 days later by single daily intraperitoneal injections of the compound (3.5 mg/kg in 1% DMSO) for the entire course of the experiment. Tumour burden was monitored longitudinally for up to 8 weeks in vivo by live luminescence imaging, and subsequently histology performed on affected organs at the end of the experiment.
as §2

In assay [3] the test system is MDA-MB-436 cells (triple negative breast invasive ductal carcinoma). The assay is described as follows: mouse Model 4 (tumour growth at transplantation site), MDA-MB-436. It is filed as in vivo, mice. Conditions: 3.5 mg/kg in 1% DMSO intraperitoneal daily; MDA-MB-436 subcutaneous; caliper tumour volume. How it is done: Another model (Model 4) studied the effect of the compound's ability to inhibit the growth of tumour cells at the transplantation site. Human tumour cell lines were injected subcutaneously into recipient mice, followed 2 days later by single daily intraperitoneal injections of a compound (3.5 mg/kg in 1% DMSO) for the entire course of the experiment. Tumour burden was monitored longitudinally for up to 12 weeks in vivo by palpation and caliper measurements of tumour volume, and subsequently histology performed on tumours at the end of the experiment.
Model 4 tested the effect of compounds of the application to inhibit the growth of tumour cells at the transplantation site. MDA-MB-436 cells were injected subcutaneously into recipient mice, followed 2 days later by single daily intraperitoneal injections of compound 12 (3.5 mg/kg in 1% DMSO) for the entire course of the experiment. Tumour burden was monitored longitudinally for up to 12 weeks in vivo by palpation and caliper measurements of tumour volume, and subsequently histology performed on tumours at the end of the experiment.

In the case of `COc1ccc(C(=O)Nc2ccccc2C(=O)NCCN2CCOCC2)c(F)c1` [Compound 12, 2-fluoro-4-methoxy-N-(2-((2-morpholinoethyl)carbamoyl)phenyl) benzamide], in assay [1], the “effect on tumour cell seeding at distal sites (FIG. 8)” value is listed as “most profound effect”. For the same compound, the “effect on subsequent growth and spread of the secondary tumours (FIG. 9)” value in assay [2] is “significant effects”. Further, the “average tumour growth at the transplantation site” value in assay [3] is listed as “significant reductions in average tumour growth”.
